# Key:
# [1] = target: FXa (Homo sapiens, UniProt P00742); test: Factor Xa inhibition (FXa-IC50); assay type: biochemical
# From the text: The inhibition of factor Xa by the compounds according to the invention and the measurement of the anticoagulant and antithrombotic activity can be determined by conventional in-vitro or in-vivo methods. A suitable method is described, for example, by J. Hauptmann et al. in Thrombosis and Haemostasis 1990, 63, 220-223.
# The inhibition of factor Xa can be measured, for example, by the method of T. Hara et al. in Thromb. Haemostas. 1994, 71, 314-319.
# [2] = target: TF/FVIIa (Homo sapiens, UniProt P08709); test: TF/factor VIIa inhibition (TF/FVIIa-IC50); assay type: biochemical
# From the text: The inhibition of factor VIIa by the compounds according to the invention and the measurement of the anticoagulant and antithrombotic activity can be determined by conventional in-vitro or in-vivo methods. A conventional method for the measurement of the inhibition of factor VIIa is described, for example, by H. F. Ronning et al. in Thrombosis Research 1996, 84, 73-81.
# Sequence of TF/FVIIa (P08709 213-466 limits assumed): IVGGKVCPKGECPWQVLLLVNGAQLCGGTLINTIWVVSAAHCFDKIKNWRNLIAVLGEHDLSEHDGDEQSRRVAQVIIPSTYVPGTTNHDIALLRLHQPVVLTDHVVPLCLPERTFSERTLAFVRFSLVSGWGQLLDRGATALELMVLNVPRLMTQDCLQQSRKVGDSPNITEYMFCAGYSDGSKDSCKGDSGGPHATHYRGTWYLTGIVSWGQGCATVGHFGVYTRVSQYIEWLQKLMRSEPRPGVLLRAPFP
# Sequence of TF/FVIIa (P08709 61-212 limits assumed): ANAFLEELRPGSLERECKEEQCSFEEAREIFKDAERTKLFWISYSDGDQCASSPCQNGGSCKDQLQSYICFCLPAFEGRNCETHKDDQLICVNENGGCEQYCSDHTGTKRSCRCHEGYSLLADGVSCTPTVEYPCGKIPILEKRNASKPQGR
# Sequence of TF/FVIIa (P13726 33-295 partner): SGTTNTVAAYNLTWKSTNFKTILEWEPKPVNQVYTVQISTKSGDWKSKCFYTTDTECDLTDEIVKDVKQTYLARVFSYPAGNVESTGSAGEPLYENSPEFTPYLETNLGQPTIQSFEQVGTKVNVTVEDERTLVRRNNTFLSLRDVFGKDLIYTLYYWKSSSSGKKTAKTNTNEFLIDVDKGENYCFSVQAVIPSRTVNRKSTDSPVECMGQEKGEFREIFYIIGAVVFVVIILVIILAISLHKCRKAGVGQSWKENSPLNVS
# Sequence of FXa (P00742 235-488 limits assumed): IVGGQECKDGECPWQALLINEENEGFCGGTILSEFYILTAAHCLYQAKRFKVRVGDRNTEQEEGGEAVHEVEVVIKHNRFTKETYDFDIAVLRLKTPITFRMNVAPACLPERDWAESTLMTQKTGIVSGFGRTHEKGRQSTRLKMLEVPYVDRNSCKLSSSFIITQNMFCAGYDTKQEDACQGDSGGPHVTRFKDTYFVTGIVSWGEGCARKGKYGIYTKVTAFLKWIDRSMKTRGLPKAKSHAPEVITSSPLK
# Sequence of FXa (P00742 41-179 limits assumed): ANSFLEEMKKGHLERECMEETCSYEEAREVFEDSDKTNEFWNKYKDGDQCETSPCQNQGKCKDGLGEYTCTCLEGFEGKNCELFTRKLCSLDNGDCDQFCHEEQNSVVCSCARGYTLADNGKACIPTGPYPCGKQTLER
IC50 [1] [nM],IC50 [2] [nM],SMILES
350,220,"CCCC(Oc1ccc2ccnc(N)c2c1)C(=O)Nc1ccc(N2CCCCC2=O)cc1 (stereo not shown) [AA, N-[4-(2-Oxopiperidin-1-yl)phenyl]-2-(1-aminoisoquinolin-7-yloxy)-pentanamide]"
350,200,"Nc1nccc2ccc(OC(C(=O)Nc3ccc(N4CCCCC4=O)cc3)c3ccccc3)cc12 (stereo not shown) [AB, N-[4-(2-oxopiperidin-1-yl)phenyl]-2-(1-aminoisoquinolin-7-yloxy)-2-phenylacetamide]"

# — US7902223B2, “Phenyl derivatives as factor XA inhibitors” (Merck Patent GmbH, priority 2001, dated 2011)
